According to article PMC2714839, “Evidence for a role of NTS2 receptors in the modulation of tonic pain sensitivity” (Molecular Pain, 2009):
“And” between values parts separate entries of the source, which are not always exact repeats. Equal entries are not always repeated. Where two headings read alike, the source gives them in different places. Non-standard residues stand in square brackets, D forms with d. Residues, ends and D or L forms follow the SMILES beside them. Ala(indol-4-yl) = N[C@@H](Cc1cccc2[nH]ccc12)C(=O)O; NMeR = CN[C@@H](CCCNC(=N)N)C(=O)O; Tle = CC(C)(C)[C@H](N)C(=O)O

How the values were obtained:
[1] = target: T1, rNTS2 (Rattus norvegicus, UniProt Q63384); experiment: Competition binding of [3H]-NT to HEK293 cell membranes expressing rNTS2
T1 construct: expressed in transfected cells; membrane homogenates
T1 sequence (Q63384 1-416): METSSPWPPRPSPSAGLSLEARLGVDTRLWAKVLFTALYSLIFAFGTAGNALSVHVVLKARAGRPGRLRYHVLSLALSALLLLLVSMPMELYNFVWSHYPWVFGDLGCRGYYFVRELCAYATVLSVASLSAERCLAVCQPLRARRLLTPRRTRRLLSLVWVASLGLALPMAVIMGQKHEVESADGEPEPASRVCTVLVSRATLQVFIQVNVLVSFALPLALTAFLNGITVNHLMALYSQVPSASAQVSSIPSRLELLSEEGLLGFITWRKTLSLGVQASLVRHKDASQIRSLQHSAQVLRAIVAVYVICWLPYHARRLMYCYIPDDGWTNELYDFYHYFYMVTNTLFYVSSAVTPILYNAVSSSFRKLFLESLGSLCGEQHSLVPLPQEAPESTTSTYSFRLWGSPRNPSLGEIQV
Method: (§1) Cells were fed every 2 days with 20 ml of medium. 70–80% confluent HEK 293 cells were washed twice with phosphate-buffered saline solution, scraped into 50 mM Tris-HCl (pH 7.4) buffer containing 1 mM EDTA and 250 mM sucrose and centrifuged at 15,000 g for 12 min at 4°C. Pellets were then re-suspended in hypotonic TE buffer (50 mM Tris-HCl (pH 7.4) buffer containing 1 mM EDTA) and membrane homogenates were recovered by centrifugation for 30 min at 4°C. The final protein concentration was determined with the use of the BCA assay kit (Pierce Biotechnology Inc, Rockford, IL).
(§2) Binding was terminated by two successive additions of 3 ml of ice-cold buffer and filtering under vacuum through GF/B filters presoaked in binding buffer containing 0.2% polyethyleneimine (48-well Brandel Harvester). Filters were placed in scintillation vials containing 5 ml scintillation liquid (Ecolite) and then counted in a beta counter.

[2] = target: T2, rNTS1 (Rattus norvegicus, UniProt P20789); experiment: Competition binding of [3H]-NT to HEK293 cell membranes expressing rNTS1
T2 construct: expressed in transfected cells; membrane homogenates
Method: as §1, §2

[3] = system: formalin-induced nociceptive behaviors; experiment: Formalin test, cumulative time in stereotypic behaviors (lifting; flinching/licking/biting); assay type: in vivo; settings: rat
Method: Experiments were performed with adult male Sprague-Dawley rats (250–300 g; Charles River, St-Constant, QC, Canada) kept on a 12 h light/dark cycle and allowed ad libitum access to food and water. Animals were individually acclimatized to Plexiglas enclosures for 3 consecutive days prior to testing. The formalin test was always performed by […] in a quiet room and between 08.00 AM and 12.00 PM to reduce any variation related to circadian rhythm. The experimental procedures in this study were approved by the Animal Care Committee of the University of Sherbrooke and were in accordance with policies and directives of the Canadian Council on Animal Care.
Behavioral experiments aimed at establishing the effects of NT analogs and NTS2-selective agonists on formalin-induced nocifensive behaviors. To this end, rats were lightly anesthetized with isoflurane (Abbott Laboratories, Montreal, QC, Canada) and injected intrathecally, at the L5-L6 intervertebral space, with either NT (6 μg/kg), NT69L (5 μg/kg), JMV-431 (5 to 60 μg/kg), or levocabastine (0.5 and 5 μg/kg) diluted in 30 μl of physiological saline (0.9% NaCl), 5 min before formalin administration. Control animals received physiological saline.
Antinociception was assessed using the formalin test as a model of persistent pain. […]
Following this, the rats were placed in clear plastic chambers (30 × 30 × 30 cm) positioned over a mirror angled at 45°, in order to allow an unobstructed view of the paws, and their behaviors were recorded for the next 60 min. […] Nocifensive behaviors were assessed using a weighed score as described previously. […] The weighted nociceptive score, ranging from 0 to 3, is calculated by multiplying the time spent in each category by its assigned weight category, summing these products and dividing by the total time for each 3 min block of time. The total area under the curve (A.U.C.) for the inflammatory phase (phase 2) was calculated between 21 to 60 min for each animal. Phase 2 was further subdivided in early (21–39 min) and late (40–60) phases and analyzed as separate events. Formalin-induced pain related behavior may also be quantified by monitoring the number and the duration of episodes of different behavioral endpoints. The cumulative time spent in both lifting (state 2) and flinching/licking/biting (state 3), reflecting behavioral reactions integrated at different CNS levels, were also determined during the inflammatory phase (21 to 60 min following formalin).
Data are presented as means ± standard errors of the mean (S.E.M.). […] Nociceptive scores over the 3 min time blocks were analyzed using a two-way analysis of variance for repeated measures, with comparisons between experimental groups and the control group at each time interval using Bonferroni's post hoc t-test. […]

[4] = system: formalin-induced nociceptive behaviors; experiment: Formalin test, weighted pain score (A.U.C.) after intrathecal pretreatment; assay type: in vivo; settings: rat, i.t. 5 μg/kg; for reduction of pain behaviors in the tonic phase (phase 2, 21-60 min, A.U.C.) vs vehicle: 5 min before formalin
Method: Experiments were performed with adult male Sprague-Dawley rats (250–300 g; Charles River, St-Constant, QC, Canada) kept on a 12 h light/dark cycle and allowed ad libitum access to food and water. Animals were individually acclimatized to Plexiglas enclosures for 3 consecutive days prior to testing. The formalin test was always performed by three different experimenters in a quiet room and between 08.00 AM and 12.00 PM to reduce any variation related to circadian rhythm.
Antinociception was assessed using the formalin test as a model of persistent pain. For this purpose, rats were placed for a 60-min habituation period in the experimentation room. Thereafter, rats received a 50 μl subcutaneous injection of diluted 2% formaldehyde (i.e. 5% formalin, Fisher Scientific, Montreal, QC, Canada) into the plantar surface of the right hind paw.
Following this, the rats were placed in clear plastic chambers (30 × 30 × 30 cm) positioned over a mirror angled at 45°, in order to allow an unobstructed view of the paws, and their behaviors were recorded for the next 60 min. […] Nocifensive behaviors were assessed using a weighed score as described previously [43, 44]. […] The weighted nociceptive score, ranging from 0 to 3, is calculated by multiplying the time spent in each category by its assigned weight category, summing these products and dividing by the total time for each 3 min block of time. The total area under the curve (A.U.C.) for the inflammatory phase (phase 2) was calculated between 21 to 60 min for each animal. Phase 2 was further subdivided in early (21–39 min) and late (40–60) phases and analyzed as separate events [45]. […] The cumulative time spent in both lifting (state 2) and flinching/licking/biting (state 3), reflecting behavioral reactions integrated at different CNS levels, were also determined during the inflammatory phase (21 to 60 min following formalin) [42].
Data are presented as means ± standard errors of the mean (S.E.M.). All calculations and statistical analysis were performed using Prism 4.0 and Instat 3.05 (Graph Pad Software, San Diego, CA, USA). Nociceptive scores over the 3 min time blocks were analyzed using a two-way analysis of variance for repeated measures, with comparisons between experimental groups and the control group at each time interval using Bonferroni's post hoc t-test. A one-way ANOVA followed by Dunnett's post hoc t-test was used to determine the significance of differences in the A.U.C. and in the time spent in states 2 and 3. A difference in responses between groups was considered significant with P values; * P < 0.05 and ** P < 0.01.

[5] = system: c-fos; experiment: Formalin-evoked c-fos-like immunoreactivity in lumbar spinal cord (L4-L5); assay type: in vivo; settings: rat
Method: At 45 min following formalin injection, rats were deeply anesthetized and perfused intraaortically with ice-cold 4% paraformaldehyde (Fisher Scientific, Montreal, QC, Canada) in 0.1 M PB, pH 7.4. The spinal cord was isolated and then cryoprotected overnight at 4°C in 30% sucrose in phosphate-buffered saline (PBS). Prior to tissue sectioning, an incision was made in the ventral horn of the contralateral side to allow spatial positioning of the spinal cord for further analysis. Transverse frozen sections (35-μm-thick) were then cut from the lumbar segment (L4-L5) of the spinal cord with a sliding microtome and processed by a free-floating slice immunohistochemistry procedure. After elimination of endogenous peroxidase activity with 0.3% hydrogen peroxide in PBS for 1 h, the tissue sections were rinsed three times in PBS and incubated for 1 h at RT in a blocking solution of 3% normal goat serum (NGS) and 0.3% Triton X-100 in PBS. After washing, free-floating sections were incubated overnight at RT with the rabbit anti-c-fos polyclonal antibody diluted 1:1000 in PBS (sc-52, Santa Cruz Biotechnology, Santa Cruz, CA, USA), containing 1% NGS and 0.3% Triton X-100. The tissue was then washed three times in PBS and transferred to a goat anti-rabbit biotinylated secondary IgG complex (1:200 in 1% NGS and 0.3% Triton X-100 in PBS; Vector, Burlingame, CA, USA) for 1 h at RT followed by exposing to avidin-biotin horseradish peroxydase complex (1:100; Vectastain ABC-Elite kit, Vector Laboratories, Burlington, ON, Canada) for 1 h at RT. After the final wash with PBS, the chromagen was developed using nickel intensified 3,3'-diaminobenzidine (DAB, 0.01%) and 0.3% H2O2. Finally, the sections were thoroughly rinsed with PBS, mounted onto slides, dehydrated in a series of graded alcohols, defatted in xylene, and placed on coverslips.
Sections were visually scanned and photographed using a bright-field microscope (Leica DM4000B; Leica Microsystems, Toronto, Canada). The individual sections were printed and overlaid with an acetate sheet on which the distribution of c-fos immunoreactive neurons was then plotted. […] For the quantification of c-fos labeled neurons, each section of the spinal cord was divided into four regions of interest: the superficial laminae (laminae I, IIo and IIi), the nucleus proprius (laminae III and IV), the neck of the dorsal horn (laminae V and VI) and the deep lamina X according to the cytoarchitectonic organization of the spinal cord. The number of c-fos immunoreactive neurons in the four defined regions was determined by averaging the counts made in 10–15 sections and expressed as mean ± S.E.M. of these values for all the rats in that treatment group for statistical analysis of the different experimental conditions. […] A Dunnett's t-test was applied to assess differences between the drug and vehicle groups. A value of P < 0.05 was considered statistically significant.

[6] = i.t. 5 μg/kg, 45 min after formalin

T2 sequence (P20789 whole entry): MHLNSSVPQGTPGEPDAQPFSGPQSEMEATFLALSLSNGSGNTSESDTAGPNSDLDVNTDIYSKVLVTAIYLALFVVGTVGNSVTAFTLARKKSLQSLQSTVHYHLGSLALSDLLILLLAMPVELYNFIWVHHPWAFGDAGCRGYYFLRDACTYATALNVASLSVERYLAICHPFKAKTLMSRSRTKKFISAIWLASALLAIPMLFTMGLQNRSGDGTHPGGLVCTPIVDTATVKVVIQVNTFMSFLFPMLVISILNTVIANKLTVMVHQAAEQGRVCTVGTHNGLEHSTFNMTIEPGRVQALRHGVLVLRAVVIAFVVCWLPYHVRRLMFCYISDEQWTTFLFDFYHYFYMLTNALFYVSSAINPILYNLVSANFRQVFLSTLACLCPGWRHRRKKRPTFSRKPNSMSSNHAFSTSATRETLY

Compound | IC50 ([1]; IC50 rNTS2) [nM] | IC50 [2] [nM] | IC50 ([1]; inhibition of 2 nM [3H]-NT binding, HEK293 cell membranes expressing rat NTS2, read-out: IC50 rNTS2) | effect on formalin-evoked licking/shaking/biting behaviors, phase 2 ([3]; i.t., all doses tested) | inhibition of cumulative time spent in lifting, phase 2 (21-60 min) ([3]; i.t., maximum reached over the doses tested (JMV-431 5-60 μg/kg, levocabastine 0.5-5 μg/kg)) [%] | decrease in A.U.C. in early phase 2 (21-39 min) [4] | decrease in A.U.C. in late phase 2 (40-60 min) [4] | reduction of pain behaviors in the tonic phase (phase 2, 21-60 min, A.U.C.) vs vehicle [4] [%] | IC50 ([2]; read-out: IC50 rNTS1) [nM] | reduction of contralateral c-fos immunoreactivity, lamina X [5, 6] [%] | reduction of contralateral c-fos immunoreactivity, laminae I-II [5, 6] [%] | reduction of contralateral c-fos immunoreactivity, laminae III-IV [5, 6] [%] | reduction of contralateral c-fos immunoreactivity, laminae V-VI [5, 6] [%] | reduction of number of c-fos-LI neurons, ipsilateral laminae I-II [5, 6] [%] | reduction of number of c-fos-LI neurons, ipsilateral laminae III-IV [5, 6] [%] | reduction of number of c-fos-LI neurons, ipsilateral laminae V-VI [5, 6] [%] | reduction of number of c-fos-LI neurons, ipsilateral laminae X [5, 6] [%] | reduction of lifting time during the tonic phase ([3]; i.t. NT69L 5 μg/kg) [%] | attenuation of flinching, licking and biting responses (maximum antagonism) ([3]; i.t. NT69L 5 μg/kg, tonic phase) [%] | effect on spinal nociceptive neuronal responses (c-fos) induced by formalin ([5]; data not shown)
CC[C@H](C)[C@H](NC[C@H](Cc1ccc(O)cc1)NC(=O)[C@@H]1CCCN1C(=O)[C@H](CCCNC(=N)N)NC(=O)[C@H](CCCNC(=N)N)NC(=O)OC(C)(C)C)C(=O)N[C@@H](CC(C)C)C(=O)O [JMV-431, Boc-Arg-ArgPro-Tyrø(CH2NH)-Ile-Leu-OH] | 19 ± 3.2 | 4740 ± 135 |  |  |  |  |  |  |  |  |  |  |  |  |  |  |  |  |  | 
C[C@@H]1CN([C@H]2CC[C@](C#N)(c3ccc(F)cc3)CC2)CC[C@]1(C(=O)O)c1ccccc1 [Levocabastine, levocabastine] |  |  | 3 nM and 2.7 nM | do not reverse | 73 ± 5 | no effect | 48 ± 16% | 29 ± 5 | > 10000 | 98 ± 1 | 74 ± 7 | 72 ± 7 | 77 ± 5 | 26 ± 7 | 60 ± 5 | 53 ± 3 | 56 ± 8 |  |  | 
CN[C@@H](CCCNC(=N)N)C(=O)N[C@@H](CCCCN)C(=O)N1CCC[C@H]1C(=O)N[C@@H](Cc1cccc2[nH]ccc12)C(=O)N[C@H](C(=O)N[C@@H](CC(C)C)C(=O)O)C(C)(C)C [NT69L, N-methyl-Arg-Lys-Pro-L-neo-Trp-tert-Leu-Leu-OH] (H-[NMeR]KP[Ala(indol-4-yl)][Tle]L-OH; N-terminus assumed) | 3.7 ± 0.4 | 2.2 ± 0.5 |  |  |  | 70 ± 13% | 48% ± 19 | 59 ± 13 |  |  |  |  |  |  |  |  |  | 74 ± 13 | 70 ± 15 | attenuated
